Source: patent US20100056519A1, “COMPOSITION AND METHOD FOR REDUCING PLATELET ACTIVATION AND FOR THE TREATMENT OF THROMBOTIC EVENTS” (priority 2008, published 2010)

How the values were obtained:
Assay type in all cases: cell-based, human
platelets [1] = test: Conventional platelet aggregation in PRP induced by 5 μM ADP; details: for Platelet Aggregation (%), ADP 5 μM: Mean ± SD
Description: (§1) The methodology employed was conventional aggregation induced by 5 μM ADP, 1 μg/ml collagen, 10 μM TRAP, whole blood aggregation with 1 μg/ml collagen, Ultegra, and PFA-100 Analyzers, expression of 14 intact, and TRAP-stimulated major receptors by whole blood flow cytometry were utilized to assess platelet activity after preincubation with escalating concentrations of E5555 (20 ng/ml, 50 ng/ml, and 100 ng/ml). The experiments were performed in healthy volunteers, CAD patients treated with ASA, and CAD patients treated with ASA and clopidogrel combination (n=10, for each group).
(§2) An Informed Consent was obtained from all volunteers. Drug users were excluded from data analysis. The study was approved by Quorum Institutional Review Board. All subjects underwent blood sampling after at least 30 minutes of rest and two or more hours of fasting. Blood (28 ml) was drawn between 8 and 10 a.m. in order to avoid any diurnal influence and sampled from an antecubital vein using a 21-gauge butterfly needle containing 3.2% sodium citrate (1:9 volume) after having discarded the first 1.5 ml of free running blood. Four Vacutainer tubes (7.0 ml) were collected for a total of 28 ml of whole blood-citrate mixture from each study participant. Chronologically, blood samples were delivered to the core laboratory facility within 45 minutes after drawing. Then all tubes of blood-citrate mixture were pooled. One portion of pooled blood (5 ml) was kept as an internal control and pretreated with the vehicle. The remaining blood (23 ml) was used for the in vitro exposure to E5555 at concentrations of 20 ng/ml, 50 ng/ml, and 100 ng/ml. […] The platelet aggregation studies, Rapid Analyzers measures, and flow cytometry preparations were initiated within no more than 110 minutes following the blood draw, incubation with the drug, and preparation of the samples.
Platelet counts were determined in each PRP sample with a Coulter Counter ZM (Coulter Co., Hialeah, Fla.). Platelet numbers were adjusted to 3.50×10^8/ml for aggregation using homologous platelet-poor plasma. Platelet aggregation was stimulated with 5 μM ADP, 1 μg/ml collagen, or 10 μM TRAP. All agonists were obtained from Chronolog Corporation (Havertown, Pa.) and Sigma (St. Louis, Miss.). Platelet aggregation experiments were performed using a Chrono-Log Lumi-Aggregometer (model 560-Ca). Aggregation curves were recorded for 4 minutes and analyzed according to internationally established standards using Aggrolink® software. Platelet aggregability was expressed as the percentage of light transmittance change from baseline using platelet-poor plasma as a reference.

platelets [2] = test: Ultegra Rapid Platelet-Function Assay (RPFA-TRAP); details: for Platelet Activation Units (PAU): Mean ± SD
Description: as §1, §2
Whole blood aggregation was determined using a Chronolog device 592A. The whole blood-citrate mixture was diluted 1:1 with 0.5 ml phosphate buffered saline and gently swirled. The sample then was allowed to warm to 37° C. for 5 minutes then transferred to the assay well. The electrode was then placed in the cuvette and the sample was stimulated with 1 μg/ml collagen. The change in electrical impedance was digitally recorded. Each whole blood sample was analyzed utilizing 2 different clinical devices: • (1) a Rapid Platelet-Function Assay (Ultegra®) (Accumetrics, Inc., San Diego, Calif.), which is a rapid platelet-function assay aspirin cartridge test with TRAP used as agonist. Polystyrene beads coated with fibrinogen are placed in a cartridge along with the peptide that activates thrombin receptor. Anticoagulated whole blood was added to the cartridge, and agglutination between platelets and coated beads was recorded. The data mirrors turbidimetric platelet aggregation and presumably reflects platelet glycoprotein IIb/IIIa blockade. Ultegra RPFA-TRAP Assay results were reported as Platelet Activation Units (PAU); and • (2) Platelet-Function Analyzer PFA-100 ™ (Dade Behring, Deerfield Ill.), which is a high shear-inducing analyzer that simulates primary hemostasis after injury to a small vessel under flow conditions. The device provides a constant negative pressure that aspirates whole blood, which comes into contact with the collagen, coated membrane and then passes through the aperture. The time required to obtain occlusion of the aperture is digitally recorded. The time to aperture occlusion (the closure time) is recorded in seconds and is inversely related to the degree of shear-induced platelet activation. We used ADP/Collagen cartridges in the index study. Both PFA-100 and Ultegra assays were performed in duplicate. An electronic quality control test was performed on each instrument daily prior to performing any patient samples.

GPIIb antigen (CD41) = test: Unstimulated whole blood flow cytometry, GPIIb antigen; details: for GPIIb antigen (CD41), Mean Fluorescence Intensity: unstimulated, Mean ± SD
Description: as §1, §2
Formation of platelet-leukocyte aggregates was assessed by dual labeling with pan-platelet marker (CD151), and then with CD14, the macrophage receptor for endotoxin lipopolysaccharides (PharMingen, and Coulter, San Diego, Calif., USA). The tubes were then covered with aluminum foil and incubated at 37° C. for 40 minutes with gentle rotation. After incubation, samples were immediately analyzed on a Becton Dickinson FACScan flow cytometer. The instrument was set up to measure forward light scatter, and FITC fluorescence. All parameters were collected using four-decade logarithmic amplification. The data was retrieved in list mode files and then analyzed. P selectin was expressed as percent positive cells. Other antigens were expressed as log mean fluorescence intensity.

[3] = E5555 20 ng/ml, Patients (ASA + C)
[4] = E5555 50 ng/ml, Patients (ASA + C)
[5] = E5555 100 ng/ml, Patients (ASA + C)
[6] = E5555 100 ng/ml, Patients (ASA)

## Br.CCOc1cc2c(c(F)c1OCC)C(=N)N(CC(=O)c1cc(N3CCOCC3)c(OC)c(C(C)(C)C)c1)C2 [E5555, 1-(3-tert-butyl-4-methoxy-5-morpholinophenyl)-2-(5,6-diethoxy-7-fluoro-1-imino-1,3-dihydro-2H-isoindol-2-yl)ethanone hydrobromide]
Platelets [1]; ASA-treated patients with coronary artery disease
  inhibition of platelet activity, aggregation induced by ADP: 10-12%
Platelets [1]; CAD patients treated with ASA+clopidogrel
  ADP-induced aggregation, effect in words: remains unchanged
Platelets [1]; E5555 20 ng/ml, CAD patients treated with ASA + clopidogrel
  Platelet Aggregation (%), ADP 5 μM: 40.8 ± 7.1%
Platelets [1]; E5555 20 ng/ml, CAD patients treated with ASA
  Platelet Aggregation (%), ADP 5 μM: 51.8 ± 4.7 %
Platelets [1]; E5555 20 ng/ml, healthy volunteers
  Platelet Aggregation (%), ADP 5 μM: 57.0 ± 9.2 %
Platelets [1]; E5555 50 ng/ml, CAD patients treated with ASA + clopidogrel
  Platelet Aggregation (%), ADP 5 μM: 42.6 ± 8.3%
Platelets [1]; E5555 50 ng/ml, CAD patients treated with ASA
  Platelet Aggregation (%), ADP 5 μM: 53.3 ± 5.9 %
Platelets [1]; E5555 50 ng/ml, healthy volunteers
  Platelet Aggregation (%), ADP 5 μM: 59.4 ± 7.9 %
Platelets [1]; E5555 100 ng/ml, CAD patients treated with ASA + clopidogrel
  Platelet Aggregation (%), ADP 5 μM: 39.3 ± 5.1%
Platelets [1]; E5555 100 ng/ml, CAD patients treated with ASA
  Platelet Aggregation (%), ADP 5 μM: 56.2 ± 5.3%
Platelets [1]; E5555 100 ng/ml, healthy volunteers
  Platelet Aggregation (%), ADP 5 μM: 60.8 ± 10.0 %
Platelets [1]; healthy volunteers, E5555 20, 50, and 100 ng/ml
  inhibition of conventional platelet aggregation induced by ADP: 15-20%
Platelets [1]; overall summary of the study
  inhibition of ADP-induced platelet aggregation in plasma: 10-15%
Platelets [2]; [3]
  Platelet Activation Units (PAU): 115 ± 21 PAU
Platelets [2]; E5555 20 ng/ml, Patients (ASA)
  Platelet Activation Units (PAU): 118 ± 12 PAU
Platelets [2]; E5555 20 ng/ml, Volunteers
  Platelet Activation Units (PAU): 270 ± 30 PAU
Platelets [2]; [4]
  Platelet Activation Units (PAU): 108 ± 20 PAU
Platelets [2]; E5555 50 ng/ml, Patients (ASA)
  Platelet Activation Units (PAU): 114 ± 11 PAU
Platelets [2]; E5555 50 ng/ml, Volunteers
  Platelet Activation Units (PAU): 126 ± 20 PAU
Platelets [2]; [5]
  Platelet Activation Units (PAU): 112 ± 18 PAU
Platelets [2]; [6]
  Platelet Activation Units (PAU): 113 ± 14 PAU
Platelets [2]; E5555 100 ng/ml, Volunteers
  Platelet Activation Units (PAU): 117 ± 21 PAU
Platelets [2]; overall summary
  Platelet Analyzer readings, fibrinogen binding, effect in words: diminished fibrinogen binding
Platelets [2]; volunteers and CAD patients on ASA alone or with clopidogrel
  Ultegra Analyzer PAU, effect in words: reduction of PAU
GPIIb antigen (CD41); overall summary, stimulation not stated
  GP IIb/IIIa antigen expression, effect in words: significant reduction
GPIIb antigen (CD41); [3]
  GPIIb antigen (CD41), Mean Fluorescence Intensity: 219 ± 25 MFI
GPIIb antigen (CD41); E5555 20 ng/ml, Patients (ASA)
  GPIIb antigen (CD41), Mean Fluorescence Intensity: 391 ± 44 MFI
GPIIb antigen (CD41); E5555 20 ng/ml, Volunteers
  GPIIb antigen (CD41), Mean Fluorescence Intensity: 423 ± 27 MFI
GPIIb antigen (CD41); [4]
  GPIIb antigen (CD41), Mean Fluorescence Intensity: 240 ± 32 MFI
GPIIb antigen (CD41); E5555 50 ng/ml, Patients (ASA)
  GPIIb antigen (CD41), Mean Fluorescence Intensity: 404 ± 31 MFI
GPIIb antigen (CD41); E5555 50 ng/ml, Volunteers
  GPIIb antigen (CD41), Mean Fluorescence Intensity: 409 ± 25 MFI
GPIIb antigen (CD41); [5]
  GPIIb antigen (CD41), Mean Fluorescence Intensity: 233 ± 30 MFI
GPIIb antigen (CD41); [6]
  GPIIb antigen (CD41), Mean Fluorescence Intensity: 396 ± 42 MFI
GPIIb antigen (CD41); E5555 100 ng/ml, Volunteers
  GPIIb antigen (CD41), Mean Fluorescence Intensity: 416 ± 24 MFI
